Patent publication US12642852B1, “Genomic engineering of pluripotent cells” (Fate Therapeutics, Inc., priority 2015, dated 2026)

Experiments:
[1] = tested on: CAG-C38 iCasp9 iPSC clone with targeted insertion of sr39TK into H11 locus; test: Dual suicide gene safe guard system killing in vitro (iCasp9 at AAVS1, sr39TK at H11); assay type: cell-based, human
Description: In addition to CAG-iCasp9 integrated into AAVS1 locus, CAG-sr39TK was integrated into H11 safe harbor in CAG-C38 clonal iPSC using targeted insertion method described herein.

[2] = tested on: puro-selected 293T cells with CMV-driven iCasp9 (AAVS1-G1.0) at AAVS1 locus; test: In vitro inducible killing by AP1903, 7AAD staining and flow cytometry, 293T cells; assay type: cell-based; conditions: AP1903 10 nM or 120 nM, 24 hrs, DMSO control, n=2
Description: (§1) In vitro inducible killing of iCasp9-integrated iPSCs: The chemical inducer of dimerization (CID; AP1903) was purchased from Medchemexpress (Monmouth Junction, NJ). Twenty-four hours after CID exposure, the cells were harvested and stained with 7-amino actinomycin D (7-AAD) according to the manufacturer's instruction (BD Biosciences). The percentage of 7-AAD positive cells were quantified as dead cells by flow cytometry (Guava, EMD Millipore, Billerica, MA) and analyzed with flowjo software.
A donor construct encompassing CMV-driven iCasp9 (AAVS1-G1.0) was designed to target the AAVS1 locus (FIG. 1A) and to integrate the Casp9 suicide gene to 293T cells. The donor construct also comprise GFP and puromycin genes, the expression of which are driven by AAVS1 endogenous promoter once the targeted insertion takes place (FIG. 1A). 293T cells were transfected with ZFNs specific to AAVS1 locus and the donor construct AAVS1-G1.0. Three days after transfection, the puromycin selection was started and continued for 12 days. The puro-selected population was analyzed by flow cytometry for GFP expression, and a range of GFP expression levels were observed. It was observed that about 82% of the puro-selected cell population expressed GFP (FIG. 1B). […] The treated cells were then harvested and stained with 7AAD, which selectively stains membrane-compromised dying cells, and analyzed by flow cytometry. […]

iCasp9-integrated iPSCs = test: In vitro inducible killing of iCasp9-integrated iPSCs by AP1903, 7AAD/GFP flow cytometry; assay type: cell-based, human; conditions: for cell death mediated by AP1903 (7AAD negative cells percentage): 24 hrs
Description: as §1
Similar to 293T cells, hiPSCs were transfected with ZFNs specific to AAVS1 locus and a donor construct encompassing CMV-driven iCasp9 (AAVS1-G1.0). The puromycin selection was started 3 days after transfection and continued for 16 days. The puro-resistant cells were analyzed by flow cytometry for GFP expression. Three populations based on the GFP intensity, GFP (neg), GFP (low) and GFP (hi) were sorted by flow cytometry (FIG. 1E). […] The treated cells were harvested and stained with 7AAD and analyzed by flow cytometry. […] However, in contrast to 293T cells with targeted Casp9 insertion at AAVS1 locus, cell death mediated by the AP1903 was not detected in all treatments in iPSCs with targeted Casp9 insertion at AAVS1 locus (FIG. 1F). […]
Because in the previous study puromycin selection under the AAVS1 promoter was robustly expressed to maintain viability and growth during selection, next a donor construct encompassing iCasp9 was designed to target the AAVS1 locus with endogenous AAVS1 promoter driving iCasp9 gene expression upon insertion (and GFP, and puromycin marker genes) (FIG. 2A). hiPSCs were transfected with ZFNs specific to AAVS1 locus and the donor construct encompassing iCasp9 under the control of AAVS1 endogenous promoter. […] The treated cells were harvested and stained with 7AAD and analyzed by flow cytometry. […] However, cell death mediated by the AP1903 was not detected in all treatments in iPSCs with targeted insertion of Casp9 at AAVS1 locus, and controlled Casp9 expression by endogenous AAVS1 promoter (FIG. 2C). […]

SMILES: Nc1nc(O)c2ncn(COC(CO)CO)c2n1 [GCV, Ganciclovir]
- inducible killing ([1]; 25 μg/mL GCV alone for nine days): expanded GCV-refractory cells

SMILES: CC[C@H](C(=O)N1CCCC[C@H]1C(=O)O[C@H](CCc1ccc(OC)c(OC)c1)c1cccc(OCC(=O)NCCNC(=O)COc2cccc([C@@H](CCc3ccc(OC)c(OC)c3)OC(=O)[C@@H]3CCCCN3C(=O)[C@@H](CC)c3cc(OC)c(OC)c(OC)c3)c2)c1)c1cc(OC)c(OC)c(OC)c1 [AP1903]
- cell death (7AAD negative cells percentage) [2]: Significant cell death was detected
- inducible killing ([1]; 10 nM AP1903 alone for two days): inducible killing of most cells but rare cells remained
- cell death mediated by AP1903 (7AAD negative cells percentage) (iCasp9-integrated iPSCs; hiPSCs with CMV-driven iCasp9, GFP (neg), GFP (low), GFP (hi) populations, 10 nM or 100 nM): not detected
- AP1903 cell death induction of GFP positive cells (iCasp9-integrated iPSCs; hiPSCs with EF1α-driven iCasp9 at AAVS1, puromycin selected 20 days): although few, were responsive
- cell death mediated by AP1903 (7AAD negative cells percentage) (iCasp9-integrated iPSCs; iPSCs with iCasp9 under endogenous AAVS1 promoter): not detected
